Source: ChEMBL document CHEMBL1146888, “Synthesis and cytotoxicity of leinamycin antibiotic analogues” (J Med Chem, 2006)

Legend:
[1] = system: HeLa; assay: Cytotoxicity against human HeLa3 cell line by MTT assay; assay type: functional, cell-based
[2] = system: HeLa; assay: Cytotoxicity against human HeLa3 cell line in presence of ethanethiol by MTT assay; assay type: functional, cell-based

Compound	IC50 [1] [µM]	IC50 [2] [µM]
O=C1CC(CCc2ccccc2)[S+]([O-])S1 (stereo not drawn)	68.4	24.8
O=C1CC(CCc2ccccc2)SS1 (stereo not drawn)	258	65.5
CC1(C)O[C@H]([C@H]2COC(C)(C)O2)[C@@H](C2CC(=O)S[S+]2[O-])O1 (stereo partly drawn)	18.2	12.6
Cc1cn([C@H]2C[C@H](O[Si](C)(C)C(C)(C)C)[C@@H](C3CC(=O)SS3)O2)c(=O)[nH]c1=O (stereo partly drawn)		16.7
CC(C)(C)[Si](C)(C)O[C@@H]1[C@H](O[Si](C)(C)C(C)(C)C)[C@@H](C2CC(=O)SS2)O[C@H]1n1ccc(=O)[nH]c1=O (stereo partly drawn)	10	7.84
O=C1CC([C@H]2O[C@@H](n3ccc(=O)[nH]c3=O)[C@H](O)[C@@H]2O)[S+]([O-])S1 (stereo partly drawn)	50.7	7.01
Cc1cn([C@H]2C[C@H](O)[C@@H](C3CC(=O)S[S+]3[O-])O2)c(=O)[nH]c1=O (stereo partly drawn)	119	29.7
CC1(C)O[C@H]([C@H]2COC(C)(C)O2)[C@@H](C2CC(=O)SS2)O1 (stereo partly drawn)	35.9	16.9
O=C1CC(CCC#CCOC2CCCCO2)SS1 (stereo not drawn)	124	20.1
Cc1cn([C@H]2C[C@H](O)[C@@H](C3CC(=O)SS3)O2)c(=O)[nH]c1=O (stereo partly drawn)	299	54.6
COc1cccc2c1C(=O)c1c(O)c3c(c(O)c1C2=O)C[C@@](O)(C(C)=O)C[C@@H]3OC1C[C@H](N)[C@H](O)[C@H](C)O1 (single isomer, unassigned) [DAUNORUBICIN]	2.96	
O=C1CC(CCC#CCOC2CCCCO2)[S+]([O-])S1 (stereo not drawn)	62.9	8.33
O=C1CC([C@H]2O[C@@H](n3ccc(=O)[nH]c3=O)[C@H](O)[C@@H]2O)SS1 (stereo partly drawn)	62.2	20.7
CC(C)(C)[Si](C)(C)O[C@@H]1[C@H](O[Si](C)(C)C(C)(C)C)[C@@H](C2CC(=O)S[S+]2[O-])O[C@H]1n1ccc(=O)[nH]c1=O (stereo partly drawn)	3.68	2.67
Cc1cn([C@H]2C[C@H](O[Si](C)(C)C(C)(C)C)[C@@H](C3CC(=O)S[S+]3[O-])O2)c(=O)[nH]c1=O (stereo partly drawn)	43.1	6.61
